# Assay results from patent US9617244B2, “Antibacterial quinoline derivatives” (JANSSEN PHARMACEUTICA NV, priority 2012, dated 2017).
# What was measured:
# [1] = test system: Staphylococcus aureus (ATCC29213); assay: In-vitro anti-bacterial activity, microtitre plate assay, IC90 determination (non-mycobacterial strains); format: cell-based; details: 90% inhibitory concentration for bacterial growth, resazurin fluorescence; for IC90 STA B29213: 24 hours; for IC90: Staphylococcus aureus, ATCC29213, 24 h, read-out: IC90 STA B29213
# How it was run: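 Inoculum of about 100 TCID50 (10–60 CFU/well) in Mueller-Hinton broth, serial five-fold compound dilutions, 24 h at 37 °C in air. Growth read by resazurin fluorescence (ex 530/em 590 nm); IC90 in μg/ml as 90% growth inhibition.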
# [2] = test system: Mycobacterium smegmatis (ATCC607); assay: In-vitro anti-bacterial activity against strain M. Smegmatis ATCC607; format: cell-based; details: 90% inhibitory concentration for bacterial growth, Alamar Blue fluorescence; for IC90 MSM 607: 48 hours; for IC90: Mycolicibacterium smegmatis, ATCC607, 48 h, read-out: IC90 MSM 607
# How it was run: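 Serial five-fold compound dilutions in BSA-supplemented wells, inoculated with ~250 CFU/well in Mueller-Hinton broth, incubated 48 h at 37 °C, 5% CO2. Growth read by Alamar Blue fluorescence (ex 530/em 590 nm); IC90 in μg/ml.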
IC90 STA B29213 [1],IC90 MSM 607 [2],IC90 [1],IC90 [2],Compound
5.10 µg/mL,3.61 µg/mL,–,–,COc1nc2ccc(SC)cc2cc1C(c1cccc(Cl)c1)C1(O)CCNC(c2ccc(F)cc2C)C1 (stereo not drawn) [Compound 165]
>15.12 µg/mL,>15.12 µg/mL,–,–,CS(=O)(=O)c1ccc2[nH]c(=O)c(C(c3cccc(Cl)c3)C3(O)CCNC(Cc4ccc(F)cc4F)C3)cc2c1 (stereo not drawn) [Compound 307]
2.43 µg/mL,3.85 µg/mL,–,–,O=c1[nH]c2ccc(Br)cc2cc1C(c1ccc(Cl)cc1)C1(O)CCNC(Cc2ccc(F)cc2F)C1 (stereo not drawn) [Compound 322]
6.90 µg/mL,6.90 µg/mL,–,–,CSc1ccc2[nH]c(=O)c(C(c3cccc(Cl)c3)C3(O)CCNC(c4ccc(F)cc4C)C3)cc2c1 (stereo not drawn) [Compound 161]
15.31 µg/mL,12.16 µg/mL,–,–,CS(=O)(=O)c1ccc2[nH]c(=O)c(C(c3cccc(Cl)c3)C3(O)CCNC(Cc4ccc(F)cc4F)C3)cc2c1 (stereo not drawn) [Compound 328]
1.77 µg/mL,1.40 µg/mL,–,–,CSc1ccc2[nH]c(=O)c(C(c3ccc(Cl)cc3)C3(O)CCNC(c4ccc(F)cc4C)C3)cc2c1 (stereo not drawn) [Compound 278]
3.51 µg/mL,2.48 µg/mL,–,–,CSc1ccc2[nH]c(=O)c(C(c3cccc(Cl)c3)C3(O)CCNC(c4ccc(F)cc4C)C3)cc2c1 (stereo not drawn) [Compound 160]
3.73 µg/mL,2.96 µg/mL,–,–,Cc1cc(F)ccc1C1CC(O)(C(c2ccc(Cl)cc2)c2cc3cc(S(C)(=O)=O)ccc3[nH]c2=O)CCN1 (stereo not drawn) [Compound 221]
3.52 µg/mL,2.49 µg/mL,–,–,CSc1ccc2[nH]c(=O)c(C(c3cccc(Cl)c3)C3(O)CCNC(c4ccc(F)cc4C)C3)cc2c1 (stereo not drawn) [Compound 162]
15.33 µg/mL,12.18 µg/mL,–,–,O=c1[nH]c2ccc(Br)cc2cc1C(c1ccc(Cl)cc1)C1(O)CCNC(Cc2ccc(F)cc2F)C1 (stereo not drawn) [Compound 321]
1.87 µg/mL,3.74 µg/mL,–,–,O=c1[nH]c2ccc(Br)cc2cc1C(c1ccc(Cl)cc1)C1(O)CCNC(Cc2ccc(F)cc2)C1 (stereo not drawn) [Compound 363]
>13.92 µg/mL,13.92 µg/mL,–,–,Cc1cc(F)ccc1C1CC(O)(C(c2ccccc2)c2cc3cc(S(C)(=O)=O)ccc3[nH]c2=O)CCN1 (stereo not drawn) [Compound 265]
1.82 µg/mL,2.04 µg/mL,–,–,Cc1cc(F)ccc1C1CC(O)(C(c2cccc(Cl)c2)c2cc3cc(Br)ccc3[nH]c2=O)CCN1 (stereo not drawn) [Compound 143]
>14.78 µg/mL,>14.78 µg/mL,–,–,Cc1cc(F)ccc1C1CC(O)(C(c2ccc(Cl)cc2)c2cc3cc(S(C)(=O)=O)ccc3[nH]c2=O)CCN1 (stereo not drawn) [Compound 222]
2.63 µg/mL,1.66 µg/mL,–,–,COc1nc2ccc(Br)cc2cc1C(c1cccc(Cl)c1)C1(O)CCNC(c2ccc(F)cc2C)C1 (stereo not drawn) [Compound 150]
1.70 µg/mL,1.20 µg/mL,–,–,COc1nc2ccc(SC)cc2cc1C(c1cccc(Cl)c1)C1(O)CCNC(c2ccc(F)cc2C)C1 (stereo not drawn) [Compound 163]
1.76 µg/mL,1.40 µg/mL,–,–,CSc1ccc2[nH]c(=O)c(C(c3ccc(Cl)cc3)C3(O)CCNC(c4ccc(F)cc4C)C3)cc2c1 (stereo not drawn) [Compound 277]
3.63 µg/mL,3.24 µg/mL,–,–,Cc1cc(F)ccc1C1CC(O)(C(c2cccc(Cl)c2)c2cc3cc(Br)ccc3[nH]c2=O)CCN1 (stereo not drawn) [Compound 144]
3.39 µg/mL,1.70 µg/mL,–,–,COc1nc2ccc(SC)cc2cc1C(c1cccc(Cl)c1)C1(O)CCNC(c2ccc(F)cc2C)C1 (stereo not drawn) [Compound 148]
3.45 µg/mL,1.73 µg/mL,–,–,Cc1cc(F)ccc1C1CC(O)(C(c2ccc(Cl)cc2)c2cc3cc(Cl)ccc3[nH]c2=O)CCN1 (stereo not drawn) [Compound 304]

# More lines, now with the values behind:
Compound,IC90 STA B29213 [1],IC90 MSM 607 [2],IC90 [1],IC90 [2]
COc1nc2ccc(SC)cc2cc1C(c1ccccc1)C1(O)CCNC(Cc2ccccc2)C1 (stereo not drawn) [Compound 141],7.77 µg/mL,4.37 µg/mL,–,–
COc1nc2ccc(Cl)cc2cc1C(c1ccc(Cl)cc1)C1(O)CCNC(c2ccc3ccccc3c2)C1 (stereo not drawn) [Compound 431],8.60 µg/mL,7.66 µg/mL,–,–
O=c1[nH]c2ccc(Br)cc2cc1C(c1ccc(Cl)cc1)C1(O)CCNC(Cc2ccc(F)c(F)c2)C1 (stereo not drawn) [Compound 134],3.07 µg/mL,3.86 µg/mL,–,–
COc1nc2ccc(S(C)(=O)=O)cc2cc1C(c1ccc(Cl)cc1)C1(O)CCNCC1Cc1cccc(F)c1 (stereo not drawn) [Compound 292],7.16 µg/mL,5.69 µg/mL,–,–
COc1nc2ccc(SC)cc2cc1C(c1ccc(Cl)cc1)C1(O)CCNC(CC2CCCCC2)C1 (stereo not drawn) [Compound 290],2.35 µg/mL,2.63 µg/mL,–,–
CSc1ccc2[nH]c(=O)c(C(c3ccc(Cl)cc3)C3(O)CCNC(c4ccccc4)C3)cc2c1 (stereo not drawn) [Compound 231],3.30 µg/mL,2.62 µg/mL,–,–
COc1nc2ccc(Cl)cc2cc1C(c1ccc(S(C)(=O)=O)cc1)C1(O)CCNC(c2ccc(F)cc2C)C1 (stereo not drawn) [Compound 368],17.71 µg/mL,14.06 µg/mL,–,–
O=c1[nH]c2ccc(Cl)cc2cc1C(c1ccc(Cl)cc1)C1(O)CCNC(Cc2ccccc2)C1 (stereo not drawn) [Compound 239],1.67 µg/mL,2.97 µg/mL,–,–
COc1nc2ccc(Br)cc2cc1C(c1ccc(Cl)cc1)C1(O)CCNCC1Cc1cccc(F)c1 (stereo not drawn) [Compound 48],0.90 µg/mL,0.72 µg/mL,–,–
COc1nc2ccc(Cl)cc2cc1C(c1ccc(Cl)cc1)C1(O)CCNCC1c1ccccc1 (stereo not drawn) [Compound 409],2.01 µg/mL,6.36 µg/mL,–,–
COc1nc2ccc(F)cc2cc1C(c1ccc(SC)cc1)C1(O)CCNC(c2ccc(F)cc2C)C1 (stereo not drawn) [Compound 407],1.65 µg/mL,1.17 µg/mL,–,–
CSc1ccc2[nH]c(=O)c(C(c3ccc(Cl)cc3)C3(O)CCNC(CC4CCCCC4)C3)cc2c1 (stereo not drawn) [Compound 296],3.43 µg/mL,6.85 µg/mL,–,–
COc1nc2ccc(Cl)cc2cc1C(c1ccc(Cl)cc1)C1(O)CCNCC1C (stereo not drawn) [Compound 421],5.43 µg/mL,5.43 µg/mL,–,–
COc1nc2ccc(Cl)cc2cc1C(c1ccc(Cl)cc1)C1(O)CCNC(c2ccccc2)C1 (stereo not drawn) [Compound 404],2.99 µg/mL,1.68 µg/mL,–,–
CSc1nc2ccc(Br)cc2cc1C(c1ccc(Cl)cc1)C1(O)CCNC(Cc2ccccc2)C1 (stereo not drawn) [Compound 89],–,–,3.58 µg/mL,1.8 µg/mL
CCCN(C)CC1CC(O)(C(c2ccc(Cl)cc2)c2cc3cc(Cl)ccc3nc2OC)CCN1 (stereo not drawn) [Compound 64],7.93 µg/mL,3.98 µg/mL,–,–

Compound,IC90 STA B29213 [1],IC90 MSM 607 [2],IC90 [1],IC90 [2]
COc1nc2ccc(Br)cc2cc1C(n1cccn1)[C@@]1(O)CCN[C@H](Cc2ccccc2)C1 (stereo in doubt) [Compound 67],–,–,14.9 µg/mL,7.47 µg/mL
COc1nc2ccc(Br)cc2cc1C(c1ccc(Cl)cc1)C1(O)CCNC(C)C1 (stereo not drawn) [Compound 125],3.00 µg/mL,3.00 µg/mL,–,–
CS(=O)(=O)c1ccc2[nH]c(=O)c(C(c3ccc(Cl)cc3)C3(O)CCNC(Cc4ccc(F)c(F)c4)C3)cc2c1 (stereo not drawn) [Compound 214],>17.57 µg/mL,>17.57 µg/mL,–,–
COc1nc2ccccc2cc1C(c1ccccc1)C1(O)CCNC(Cc2ccccc2)C1 (stereo not drawn) [Compound 402],>12.47 µg/mL,12.47 µg/mL,–,–
O=c1[nH]c2ccc(Br)cc2cc1C(c1ccc(Cl)cc1)C1(O)CCNC(CC2CCCCC2)C1 (stereo not drawn) [Compound 254],–,3.60 µg/mL,3.6 µg/mL,–
COc1nc2ccccc2cc1C(c1ccc(Cl)cc1)C1(O)CCNC(Cc2ccccc2)C1 (stereo not drawn) [Compound 19],–,–,5.95 µg/mL,3.76 µg/mL
COc1nc2ccc(Cl)cc2cc1C(c1ccc(Cl)cc1)C1(O)CCNC(CNc2cccnc2)C1 (stereo not drawn) [Compound 470],5.23 µg/mL,3.08 µg/mL,–,–
O=c1[nH]c2ccc(Br)cc2cc1C(c1ccc(Cl)cc1)C1(O)CCNCC1Cc1cccc(F)c1 (stereo not drawn) [Compound 49],–,1.79 µg/mL,2.25 µg/mL,–
COc1nc2ccc(Cl)cc2cc1C(c1ccc(S(C)(=O)=O)cc1)C1(O)CCNC(c2ccc(F)cc2C)C1 (stereo not drawn) [Compound 369],9.12 µg/mL,4.57 µg/mL,–,–
C=CC1CC(O)(C(c2ccc(Cl)cc2)c2cc3cc(Br)ccc3[nH]c2=O)CCN1 (stereo not drawn) [Compound 359],–,–,12.8 µg/mL,10.2 µg/mL
CSc1ccc2[nH]c(=O)c(C(c3ccc(Cl)cc3)C3(O)CCNC(c4ccccc4)C3)cc2c1 (stereo not drawn) [Compound 233],1.67 µg/mL,1.32 µg/mL,–,–
"COc1nc2ccc(Cl)cc2cc1C(c1ccc(Cl)cc1)C1(O)CCNC(c2ccc(F)cc2C)C1 (single isomer, unassigned) [Compound 4]",2.63 µg/mL,2.09 µg/mL,–,–
C=CC1CC(O)(C(c2ccc(Cl)cc2)c2cc3cc(Br)ccc3[nH]c2=O)CCN1 (stereo not drawn) [Compound 360],12.82 µg/mL,6.42 µg/mL,–,–
COc1nc2ccc(Cl)cc2cc1C(c1ccc(Cl)cc1)C1(O)CCNC(c2ccc3ccccc3c2)C1 (stereo not drawn) [Compound 442],11.37 µg/mL,3.60 µg/mL,–,–
O=c1[nH]c2ccc(Br)cc2cc1C(c1ccc(Cl)cc1)C1(O)CCNCC1Cc1cccc(F)c1 (stereo not drawn) [Compound 229],1.86 µg/mL,3.31 µg/mL,–,–
